From patent US11414377B2, “Modulator of metabotropic and ionotropic transmembrane receptors and use thereof” (IBD THERAPEUTICS LLC, priority 2018, dated 2022)

Columns and labels:
TRPM8 ion channel = biological target: T1, TRPM8 ion channel (Homo sapiens, UniProt Q7Z2W7); assay: Effect on activity of TRPM8 ion channel (Fluo-4 AM calcium); assay type: cell-based; conditions: TRPM8 expressing HEK293 cells; Icilin 100 nM; intracellular calcium; read-out: IC50, blocker of TRPM8 ion channel
T1 construct: expressed in transfected cells; host or cells: HEK293 cells
Procedure: Compound I was dissolved in DMSO to a concentration of 100 mM; then the stock solution was diluted with DMSO to prepare a test solution with the concentration of substance equal to 50 μM. TRPM8 expressing HEK293 cells were used in the experiment. At the day of the experiment, the cells were incubated with a 4 μM of a solution of fluorescent indicator Fluo-4 AM. The cells after the preincubation with Icilin (100 nM), the known agonist of TRPM8 ion channel, were incubated with the test compound. The activity of receptors was determined by the intracellular calcium concentration using fluorescence spectroscopy (Behrendt, H. J. et al. (2004), Br. J. Pharmacol., 141: 737-745. FINAL).

[1] = test system: guinea pigs of Agouti line; assay: Capsaicin cough model in guinea pigs, inhalation administration; assay type: in vivo
female balb/c mice = assay: Oxazolone-induced inflammatory bowel disease model; assay type: in vivo; conditions: scored at 72 hours, control 2.00 ± 0.21
Procedure: The study of the activity of Compound I on the oxazolone-induced inflammatory bowel disease model (ulcerative Colitis and Crohn's disease model) was carried out by means of a standard procedure (Heller F., Fuss I. J., Nieuwenhuis E. E., Blumberg R. S., Strober W. Oxazolone colitis, a Th2 colitis model resembling ulcerative colitis, is mediated by IL-13-producing NK-T cells//Immunity. 2002. P. 629-638).
The study was carried out on female balb/c mice. A 3.5 F catheter was introduced into the large intestine to a depth of 3-4 cm. Then, 150 μl of 1% oxazolone solution in 50% ethanol was slowly introduced into the colon lumen, the catheter was slowly removed and the mouse was kept in a vertical position (upside down) for 60 seconds to avoid the introduced solution flowing-out. Experimental animals were returned to the cages and the animal was kept in the warm. Compound I was administered intragastrically, three times: 1 hour, 25 hours and 49 hours after the rectal administration of oxazolone. 72 hours later after the rectal administration of oxazolone, the macroscopic assessment of intestinal wall damage is carried out with the help of score scale: 0 points—no lesions, 1 point—hyperemia, no ulcers, 2 points—hyperemia and thickening of the intestinal wall, no ulcers, 3 points—one ulcer without thickening of the intestine wall, 4 points—2 or more of the site of ulceration or inflammation, 5 points—2 or more severe sites of ulcerations and inflammation, or one site of ulceration/inflammation affecting >1 cm in length of the intestine, 6-10 points—the lesion affects >2 cm in length of the intestine, the score increases by 1 point per each 1 cm that is damaged.
For all data, descriptive statistics is applied: the arithmetic mean (M) and the standard error of the mean (m) are counted up. The normality of distribution of the values obtained in the course of the experiment was checked with the aid of the Shapiro-Wilk test. […] Distinctions were determined at 5% at a level of confidence.

male balb/c mice = assay: Motility of the gastrointestinal tract in vivo (activated carbon transit); conditions: for The time of ejection of activated carbon: intact 73.8 ± 3.7
Procedure: The effect of Compound I on the motility of the GIT was studied by a standard procedure (Li Y. Y., Li Y. N., Ni J. B., Chen C. J., Lv S., Chai S. Y., Wu R. H., Yüce B., Storr M. Involvement of cannabinoid-1 and cannabinoid-2 receptors in septic ileus//Neurogastroenterol Motil. 2010. V. 22. P. 350-388). The study was carried out on male balb/c mice, the individual weight of which deviates from the mean value within the sex of no more than ±20%. The animals were given the intragastric administration of a solution of activated carbon (50 mg/ml, in 10 ml/kg) and the rate (in minutes) of the movement of the activated carbon on the intestine of animals was evaluated. Compounds I was administered once intragastrically 1 hour prior to administration of activated carbon. As the comparative preparations, hyoscin butyl bromide (Buscopan) at a dose of 3 mg/kg, trimebutine (Trimedat) at a dose of 33 mg/kg, mebeverine (Duspatalin) at a dose of 30 mg/kg were used. The obtained data were checked using the Grubb's test for the presence of the largest or smallest abnormal observation (ejection) in the sample. Values determined “to be eliminated” in this test were not used for further assay. For all data, descriptive statistics was used: a mean value (M) and standard error of the mean value (m) were counted up. The normality of distribution of the values obtained in the course of the experiment was checked with the aid of the Kolmogorov-Smirnov test. In the case of normal distribution, Student's t-test (t-test) was used to evaluate the inter-group distinctions. In the case of the distribution that is other than the normal one for the comparison of several groups, the Kruskall-Wallis test (with Dann's post hoc test) was used. Distinctions were determined at 5% at a level of confidence.

rats = assay: Stress-induced defecation model in rats; assay type: in vivo; conditions: 40 minutes restraint, control 2.65 ± 0.35, intact 0.24 ± 0.05
Procedure: The study of the activity of Compound I in the stress-induced defecation model was carried out by a standard procedure (Taguchi R., Shikata K., Furuya Y, Hirakawa T., Ino M., Shin K., Shibata H. Selective corticotropin-releasing factor 1 receptor antagonist E2508 reduces restraint stress-induced defecation and visceral pain in rat models//Psychoneuroendocrinology. 2017. P. 110-115).
Rats were adapted to a room in which the experiment was conducted for 24 hours. The study was carried out on satisfied rats. Compound I was administered once, intragastrically. After 1 hour, the rat was placed in the cloth so that the front paws were pressed to the body. In such a form, the rat was placed into the individual cage on the gating and was left for 40 minutes. Summarily the whole of excrement released during the observation period of 40 minutes then was weighed.
For all data, descriptive statistics is applied: the arithmetic mean (M) and the standard error of the mean (m) are counted up. The normality of distribution of the values obtained in the course of the experiment was checked with the aid of the Shapiro-Wilk test. In the case of normal distribution, 1-way ANOVA (with […] post hoc test) was used to evaluate the inter-group distinctions. In the case of the distribution that is other than normal one, the […] was used for the comparison of several groups.

T1 sequence (Q7Z2W7 whole entry): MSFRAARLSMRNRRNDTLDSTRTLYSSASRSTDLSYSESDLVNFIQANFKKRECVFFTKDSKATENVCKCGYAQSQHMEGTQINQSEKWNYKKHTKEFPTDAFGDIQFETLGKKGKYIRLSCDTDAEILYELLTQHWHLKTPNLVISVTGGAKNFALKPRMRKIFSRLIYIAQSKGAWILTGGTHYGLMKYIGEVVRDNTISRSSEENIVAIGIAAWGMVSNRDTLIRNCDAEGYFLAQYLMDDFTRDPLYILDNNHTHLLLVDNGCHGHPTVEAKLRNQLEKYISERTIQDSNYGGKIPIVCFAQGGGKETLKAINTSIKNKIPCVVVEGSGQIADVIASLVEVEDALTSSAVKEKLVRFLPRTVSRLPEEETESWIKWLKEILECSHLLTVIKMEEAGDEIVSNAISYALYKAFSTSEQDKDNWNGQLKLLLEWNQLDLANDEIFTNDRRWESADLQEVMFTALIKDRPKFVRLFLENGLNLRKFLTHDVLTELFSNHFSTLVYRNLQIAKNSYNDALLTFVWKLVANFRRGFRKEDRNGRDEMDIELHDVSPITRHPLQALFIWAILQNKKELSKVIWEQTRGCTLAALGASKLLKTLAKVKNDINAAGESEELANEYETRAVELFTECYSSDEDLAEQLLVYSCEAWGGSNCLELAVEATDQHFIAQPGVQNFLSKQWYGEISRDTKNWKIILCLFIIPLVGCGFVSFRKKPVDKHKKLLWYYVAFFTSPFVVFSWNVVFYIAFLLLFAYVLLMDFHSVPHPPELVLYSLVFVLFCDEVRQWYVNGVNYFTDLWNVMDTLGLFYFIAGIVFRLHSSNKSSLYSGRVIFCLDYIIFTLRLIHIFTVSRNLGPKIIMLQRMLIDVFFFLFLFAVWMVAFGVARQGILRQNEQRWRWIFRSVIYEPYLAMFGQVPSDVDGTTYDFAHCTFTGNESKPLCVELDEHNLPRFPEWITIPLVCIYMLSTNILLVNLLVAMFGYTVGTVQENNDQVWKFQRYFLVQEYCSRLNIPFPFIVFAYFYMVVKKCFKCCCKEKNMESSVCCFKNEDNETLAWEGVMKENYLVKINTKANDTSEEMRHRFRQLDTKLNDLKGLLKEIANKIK

O=C(Cc1ccc(O)cc1)N[C@@H](Cc1ccccc1)C(=O)NCCc1ccccc1 [Compound I, 2-phenylethylamide N-(p-hydroxyphenylacetyl)phenylalanine]
IC50 (TRPM8 ion channel): 62 µM | Suppression of cough (% from the control) ([1]; 0.25 mg/kg by inhalation 15 minutes before capsaicin): 46.7% | A number of cough attacks for 15 minutes from the start of inhalation (test) ([1]; 0.25 mg/kg by inhalation 15 minutes before capsaicin 30 μM, control 15.2 ± 0.8): 8.1 ± 0.2*& | The degree of colon wall damage (female balb/c mice; 10 mg/kg, 1, 25 and 49 hours after oxazolone): 2.20 ± 0.96 points | The degree of colon wall damage (female balb/c mice; 20 mg/kg intragastrically 1, 25 and 49 hours after oxazolone): 0.00 ± 0.00& points | The time of ejection of activated carbon (male balb/c mice; 1.5 mg/kg once intragastrically 1 hour prior to activated carbon): 108.7 ± 9.28 min | The time of ejection of activated carbon (male balb/c mice; 3 mg/kg once intragastrically 1 hour prior to activated carbon): 130.4 ± 11.42 min | The time of ejection of activated carbon (male balb/c mice; 7.5 mg/kg once intragastrically 1 hour prior to activated carbon): 123.4 ± 11.43 min | The time of ejection of activated carbon (male balb/c mice; 15 mg/kg once intragastrically 1 hour prior to activated carbon): 147.6 ± 8.94 min | Increase of the time of activated carbon evacuation (male balb/c mice; 1.5-15 mg/kg intragastrically, versus intact): 1.5-2 times | Weight of excrement (rats; 0.3 mg/kg once intragastrically): 2.35 ± 0.35 g | Weight of excrement (rats; 1 mg/kg once intragastrically): 1.43 ± 0.12 g | Weight of excrement (rats; 3 mg/kg once intragastrically): 1.00 ± 0.06& g
